Data: patent US5583018A, “Rapamycin derivative process for its preparation and its use” (SmithKline Beecham p.l.c., priority 1993, dated 1996)

Assays:
Saccharomyces cerevisiae = experiment: Assay for antifungal activity (agar well zone of inhibition); type: cell-based
Protocol: Yeast organism (Saccharomyces cerevisiae) in logarithmic growth were plated on complete agar medium (YPD). Compounds dissolved in an appropriate aqueous or organic solvent were placed in wells punched in the agar. Plates were incubated for 48 hours and zones of inhibition were measured. The potency of compounds were quantified by regression analysis of plots of inhibition zone versus the log of drug concentration.

Spleen cells = experiment: Mitogenesis assay for immunosuppressive activity (Concanavalin A stimulated spleen cells, 3H-thymidine); type: cell-based, BDF1 female mice
Protocol: Spleen cells for BDF1 female mice were established in RPMI with 10% fetal calf serum at 5×10^6 /mL. One hundred […] of this suspension (5×10^5 cells) were dispensed into 96-well round-bottomed microtiter plates (Linbro, Flow Laboratories). Concanavalin A (5 μg/ml) was added as the mitogenic stimulus, and the final volume in the microliter wells was adjusted to 200 μL with RPMI. Cell cultures were incubated for 72 hours at 37° C. in a 5% CO2 atmosphere and pulsed with 0,5 μCi ^3 H-thymidine (specific activity […]) for the last 18 hours of the 72 hours culture. The cells were harvested on an automated multiple sample harvester and cell-associated radioactivity counted in a Beckman liquid scintillation counter. The results were expressed as the mean values derived from quadruplicate measurements. Cell viability was determined by trypan blue exclusion after 72 hours of incubation. Compounds to be tested were added to the microtiler plates at the appropriate dilutions prior to the addition of cells.

With 13,14-Bis(dihydro)rapamycin the “antifungal activity (in words)” value (Saccharomyces cerevisiae) was “shows antifungal activity”, the “Antifungal Activity, IC12” value (Saccharomyces cerevisiae; Saccharomyces cerevisiae on YPD agar, 48 hours, zones of inhibition) was 190 to 840 ng/mL and the “immunomodulatory activity (in words)” value (Spleen cells) was “shows immunomodulatory activity”. The IC50 (Spleen cells; spleen cells of BDF1 mice, Concanavalin A 5 μg/ml, 72 hours) was 70 to 200 nM.
